The text below walks through data of US20030186939A1, “Omega-cycloalkyl-prostaglandin E2 derivatives” (priority 1997, published 2003).

Common to all, as to conditions: competition of 2.5 nM 3H-PGE2 binding, CHO cell membrane fraction; more polar compounds
The target in one assay is T1, mouse EP2 (Mus musculus, UniProt Q62053).
T1 construct: expressed in transfected cells; host or cells: CHO cells (membrane fraction)
As to the kind of experiment: Binding assay using expression cell of prostanoide receptor subtype (EP2). The method, then:
(§1) The standard assay mixture contained membrane fraction (0.5 mg/ml), and [^3H]-PGE2 in a final volume of 200 μl was incubated for 1 hour at room temperature. The reaction was terminated by the addition of 3 ml of ice-cold buffer. The mixture was rapidly filtered through a GF/B glass filter. The radioactivity associated with the filter was measured by liquid scintillation counting.
(§2) Kd and Bmax values were determined from Scatchard plots [Ann. […] The following buffer was used in all reactions.
(§3) Buffer: 10 mM potassium phosphate (pH 6.0), 1 mM EDTA, 10 mM MgCl2, 0.1 M NaCl
(§4) The dissociation constant (Ki) of each compound was calculated by the following equation.

For the next assay, the target named is T2, mouse EP4 (Mus musculus, UniProt P32240).
T2 construct: expressed in transfected cells; host or cells: CHO cells (membrane fraction)
As to the kind of experiment: Binding assay using expression cell of prostanoide receptor subtype (EP4). On the procedure: as §1, §2, §3, §4

For a further assay, the target named is T3, mouse EP3α (Mus musculus, UniProt P30557).
T3 construct: expressed in transfected cells; host or cells: CHO cells (membrane fraction)
T3 sequence (P30557 1-365): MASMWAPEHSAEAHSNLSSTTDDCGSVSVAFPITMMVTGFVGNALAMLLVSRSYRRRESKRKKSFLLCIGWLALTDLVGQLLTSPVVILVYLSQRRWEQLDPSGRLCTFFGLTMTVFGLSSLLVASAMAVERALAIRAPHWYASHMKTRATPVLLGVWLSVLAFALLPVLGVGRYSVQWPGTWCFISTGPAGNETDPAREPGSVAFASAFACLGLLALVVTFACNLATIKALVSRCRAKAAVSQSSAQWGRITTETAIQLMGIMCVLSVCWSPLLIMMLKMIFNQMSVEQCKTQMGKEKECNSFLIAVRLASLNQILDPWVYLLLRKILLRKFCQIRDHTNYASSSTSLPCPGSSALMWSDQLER
The assay can be described thus: Binding assay using expression cell of prostanoide receptor subtype (EP3α). On the procedure: (§5) The preparation of membrane fraction was carried out according to the method of Sugimoto et. al. [J. Biol. Chem. 267, 6463-6466 (1992)], using expression CHO cell of the prostanoide receptor subtype (mouse EP1, EP2, EP3α, EP4).
as §1
(§6) Kd and Bmax values were determined from Scatchard plots [Ann. N.Y. Acad. Sci., 51, 660 (1949)]. Non-specific binding was calculated as the bound in the presence of an excess (2.5 μM) of unlabeled PGE2. In the experiment for competition of specific ^3H-PGE2 binding by the compounds of the present invention, 2.5 nM of ^3H-PGE2 and various concentrations of compounds of the present invention were added. The following buffer was used in all reactions.
as §3
(§7) In the example compounds, all of values were shown the more polar compounds.
as §4

The next assay addresses T4, mouse EP1 (Mus musculus, UniProt P35375).
T4 construct: expressed in transfected cells; host or cells: CHO cells (membrane fraction)
T4 sequence (P35375 1-405): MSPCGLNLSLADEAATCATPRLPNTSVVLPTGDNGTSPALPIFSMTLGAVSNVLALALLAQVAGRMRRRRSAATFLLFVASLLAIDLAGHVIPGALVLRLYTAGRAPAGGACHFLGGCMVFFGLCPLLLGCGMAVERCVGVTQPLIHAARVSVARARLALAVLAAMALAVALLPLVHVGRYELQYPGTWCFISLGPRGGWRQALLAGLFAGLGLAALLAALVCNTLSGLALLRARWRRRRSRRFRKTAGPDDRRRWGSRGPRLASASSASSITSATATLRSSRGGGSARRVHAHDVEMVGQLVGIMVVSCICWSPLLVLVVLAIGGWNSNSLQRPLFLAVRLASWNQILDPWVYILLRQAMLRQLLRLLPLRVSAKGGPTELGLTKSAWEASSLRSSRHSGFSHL
As to the kind of experiment: Binding assay using expression cell of prostanoide receptor subtype (EP1). On the procedure:
as §5, §1, §6, §3, §7, §4

Some results are limits rather than exact numbers.

T2 sequence (P32240 whole entry): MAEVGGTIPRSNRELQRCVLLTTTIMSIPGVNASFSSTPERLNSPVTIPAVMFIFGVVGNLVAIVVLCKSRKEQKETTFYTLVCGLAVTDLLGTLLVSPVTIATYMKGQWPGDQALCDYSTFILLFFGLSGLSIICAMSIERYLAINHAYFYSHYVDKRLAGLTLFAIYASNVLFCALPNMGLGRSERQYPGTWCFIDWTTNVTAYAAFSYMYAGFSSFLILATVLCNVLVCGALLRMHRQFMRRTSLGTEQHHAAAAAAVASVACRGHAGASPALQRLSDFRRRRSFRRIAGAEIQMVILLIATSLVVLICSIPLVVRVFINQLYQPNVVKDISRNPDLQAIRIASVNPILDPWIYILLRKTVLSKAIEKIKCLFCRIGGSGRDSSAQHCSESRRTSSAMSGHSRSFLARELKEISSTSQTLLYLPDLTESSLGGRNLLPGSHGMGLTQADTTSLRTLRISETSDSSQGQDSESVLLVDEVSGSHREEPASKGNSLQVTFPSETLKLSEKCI
T1 sequence (Q62053 whole entry): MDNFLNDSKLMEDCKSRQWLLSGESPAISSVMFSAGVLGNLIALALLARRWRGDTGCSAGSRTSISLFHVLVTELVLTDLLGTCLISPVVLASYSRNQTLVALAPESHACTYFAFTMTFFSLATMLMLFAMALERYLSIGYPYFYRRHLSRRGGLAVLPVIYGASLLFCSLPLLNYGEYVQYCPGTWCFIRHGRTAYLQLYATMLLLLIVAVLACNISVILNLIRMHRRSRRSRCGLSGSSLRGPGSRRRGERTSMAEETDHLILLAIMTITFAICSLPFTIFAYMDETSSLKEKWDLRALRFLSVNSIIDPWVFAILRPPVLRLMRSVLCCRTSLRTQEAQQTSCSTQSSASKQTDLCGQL

Take `CCCC1(C(O)C/C=C/[C@H]2[C@H](OC)CC(=O)[C@@H]2C/C=C\CCCC(=O)O)CCC1` (stereo partly drawn) [compound 10]: the Ki at mouse EP2 was 0.034 µM; on mouse EP4, greater than 10 µM; on mouse EP3α it was greater than 10 µM; at mouse EP1, greater than 10 µM.

With `C=CCCC1(C(O)C/C=C/[C@H]2[C@H](O)CC(=O)[C@@H]2C/C=C\CCCC(=O)O)CCC1` (stereo partly drawn) [Example 6(1), (5Z, 11α, 13E)-17,17-propano-20,20-methylene-11,16-dihydroxy-9-oxoprosta-5,13-dienoic acid], the inhibition constant Ki on mouse EP2 is 0.036 µM; at mouse EP4, greater than 10 µM; at mouse EP3α, greater than 10 µM; on mouse EP1, greater than 10 µM.

Turning to `CCCC1(C(O)C/C=C/[C@H]2[C@H](O)CC(=O)[C@@H]2C/C=C\CCCC(=O)O)CCC1` (stereo partly drawn) [compound 4], the inhibition constant Ki at mouse EP2 was 0.092 µM; at mouse EP4, greater than 10 µM; at mouse EP3α it was greater than 10 µM; at mouse EP1, greater than 10 µM.

As to `O=C(O)CCC/C=C\C[C@@H]1[C@@H](/C=C/CC(O)C2(CC3CC3)CCC2)[C@H](O)C[C@H]1Cl` (stereo partly drawn) [Example 17(2), (5Z, 9β, 11α, 13E)-17, 17-propano-19, 20-methano-11, 16-dihydroxy-9-chloroprosta-5, 13-dienoic acid], the Ki at mouse EP2 worked out at 0.0009 µM; on mouse EP4, 0.4 µM; on mouse EP3α, 2.7 µM; on mouse EP1, 1.1 µM.

With `C=CCC1(C(O)C/C=C/[C@H]2[C@H](O)CC(=O)[C@@H]2C/C=C\CCCC(=O)O)CCC1` (stereo partly drawn) [Example 4(5), (5Z, 11α, 13E)-11,16-dihydroxy-9-oxo-17,17-propanoprosta-5, 13-19-trienoic acid], the Ki on mouse EP2 is 0.032 µM; at mouse EP4 it was greater than 10 µM; at mouse EP3α it was greater than 10 µM; on mouse EP1, greater than 10 µM.

Take `CCC1(C(O)C/C=C/[C@H]2[C@H](O)CC(=O)[C@@H]2C/C=C\CCCC(=O)O)CCC1` (stereo partly drawn) [Example 4(10), (5Z, 11α, 13E)-11,16-dihydroxy-9-oxo-17,17-propano-20-norprosta-5,13-dienoic acid]: the Ki at mouse EP2 was 0.03 µM; on mouse EP4 it was greater than 10 µM; on mouse EP3α, greater than 10 µM; at mouse EP1, greater than 10 µM.

For the compound `C=CCC1(C(O)C/C=C/[C@@H]2[C@@H](C/C=C\CCCC(=O)OC)[C@H](Cl)C[C@H]2O)CCC1` (stereo partly drawn) [Example 16(1), (5Z, 9β, 11α, 13E)-17, 17-propano-11, 16-dihydroxy-9-chloroprosta-5, 13, 19-trienoic acid•methylester], the inhibition constant (Ki) was 0.096 µM at mouse EP2, greater than 10 µM on mouse EP4, greater than 10 µM on mouse EP3α and greater than 10 µM at mouse EP1.

As to `C=CC1(C(O)C/C=C/[C@H]2[C@H](O)CC(=O)[C@@H]2C/C=C\CCCC(=O)O)CCC1` (stereo partly drawn) [Example 6(5), (5Z, 11α, 13E)-17,17-propano-11,16-dihydroxy-9-oxo-20-norprosta-5,13,18-trienoic acid], the inhibitory constant (Ki) was 0.076 µM at mouse EP2, greater than 10 µM at mouse EP4, greater than 10 µM on mouse EP3α and greater than 10 µM at mouse EP1.

For `C=C1C[C@@H](O)[C@H](/C=C/CC(O)C2(CCC)CCC2)[C@H]1C/C=C\CCCC(=O)O` (stereo partly drawn) [compound 12], the Ki at mouse EP2 was 0.37 µM; on mouse EP4, greater than 10 µM; on mouse EP3α it was greater than 10 µM; at mouse EP1, greater than 10 µM.
